For 7 molecules, TGI results are on record in PubChem BioAssay (NCI).

Some test systems named below: SR leukemia; ACHN renal; SK-OV-3 ovarian; OVCAR-4 ovarian; SNB-19 CNS; MOLT-4 leukemia; NCI-H226 lung; NCI-H23 lung; HL-60(TB) leukemia; MALME-3M melanoma; OVCAR-5 ovarian; CCRF-CEM leukemia; NCI-H522 lung; MDA-N; PC-3 prostate; MDA-MB-231 breast; KM12 colon; HCC-2998 colon; NCI/ADR-RES ovarian; SF-295 CNS.
Common to all, as to assay: growth of human tumour cells (NCI), 48 h

The structures appear in SMILES notation.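 Exposure lasted 48 hours, with cells grown in 96-well plates and compounds tested at five concentrations. TGI denotes the concentration required for complete inhibition of growth.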

As to `COC(=O)c1cc2c(cc1CC1Cc3cc4c(cc3C1=O)CCC4)CCC2` (configuration not stated), the TGI with SR leukemia was greater than 100 µM; with ACHN renal it was greater than 100 µM; with SK-OV-3 ovarian, greater than 100 µM; in the experiment on OVCAR-4 ovarian it was greater than 100 µM; in the experiment with SNB-19 CNS it was greater than 100 µM; in the experiment on MOLT-4 leukemia, 57.5 µM. In addition, the TGI in the experiment with NCI-H226 lung, with NCI-H23 lung, in the experiment with HL-60(TB) leukemia, with MALME-3M melanoma, in the experiment with OVCAR-5 ovarian and with CCRF-CEM leukemia was greater than 100 µM in each case. For the same molecule, the TGI with NCI-H522 lung, in the experiment on MDA-N, in the experiment with PC-3 prostate, in the experiment on MDA-MB-231 breast, with KM12 colon and in the experiment with HCC-2998 colon was greater than 100 µM in each case. For the same molecule, the TGI is greater than 100 µM in the experiment with NCI/ADR-RES ovarian and 89.2 µM in the experiment on SF-295 CNS.
In the case of `Nc1cccnc1NCC1(CO)CCCC1`, the TGI in the experiment on SR leukemia, in the experiment on ACHN renal, in the experiment with SK-OV-3 ovarian, in the experiment on OVCAR-4 ovarian, with MOLT-4 leukemia and in the experiment with NCI-H226 lung was greater than 100 µM in each case. Moreover, the TGI with NCI-H23 lung, in the experiment on HL-60(TB) leukemia, in the experiment with MALME-3M melanoma, with OVCAR-5 ovarian, in the experiment with CCRF-CEM leukemia and in the experiment on NCI-H522 lung was greater than 100 µM throughout. In addition, the TGI in the experiment with MDA-N, in the experiment with PC-3 prostate, in the experiment on MDA-MB-231 breast, in the experiment with KM12 colon, in the experiment with HCC-2998 colon and in the experiment with NCI/ADR-RES ovarian was greater than 100 µM throughout. This molecule also returned a TGI in the experiment with SF-295 CNS greater than 100 µM.
Regarding `Cc1nc(-c2cc3c(ccc4ccccc43)oc2=O)cs1`, the TGI with SR leukemia, in the experiment on ACHN renal, in the experiment with SK-OV-3 ovarian, with OVCAR-4 ovarian, with SNB-19 CNS and in the experiment with MOLT-4 leukemia was greater than 100 µM throughout. Also, the TGI with NCI-H226 lung, in the experiment on HL-60(TB) leukemia, with MALME-3M melanoma, in the experiment on OVCAR-5 ovarian, with CCRF-CEM leukemia and in the experiment with NCI-H522 lung was greater than 100 µM throughout. In addition, the TGI in the experiment on MDA-N, with PC-3 prostate, in the experiment on MDA-MB-231 breast, in the experiment with KM12 colon, in the experiment on HCC-2998 colon and in the experiment with NCI/ADR-RES ovarian was greater than 100 µM each time. Further, the TGI in the experiment on SF-295 CNS was greater than 100 µM.
Regarding `CN(C)c1ccc(/C=C2/NC(=S)NC2=O)cc1`, the TGI with SR leukemia, in the experiment on ACHN renal, in the experiment on SK-OV-3 ovarian, in the experiment with OVCAR-4 ovarian, with SNB-19 CNS and in the experiment with MOLT-4 leukemia was greater than 100 µM throughout. Besides, the TGI in the experiment on NCI-H226 lung was greater than 100 µM; in the experiment on NCI-H23 lung, greater than 100 µM; with HL-60(TB) leukemia, 51 µM; in the experiment on MALME-3M melanoma, greater than 100 µM; with OVCAR-5 ovarian, greater than 100 µM; in the experiment on CCRF-CEM leukemia, 80.8 µM. Moreover, the TGI in the experiment with NCI-H522 lung, in the experiment with MDA-N, in the experiment with PC-3 prostate, with MDA-MB-231 breast, in the experiment on HCC-2998 colon and in the experiment with NCI/ADR-RES ovarian was greater than 100 µM each time. This molecule displayed a TGI with SF-295 CNS greater than 100 µM.
As to `COc1ccccc1N(CN1C(=O)CCC1C(=O)O)C(C)=O` (configuration not stated), the TGI in the experiment on SR leukemia, with ACHN renal, with SK-OV-3 ovarian, in the experiment on OVCAR-4 ovarian, in the experiment on SNB-19 CNS and with MOLT-4 leukemia was greater than 100 µM throughout. For the same molecule, the TGI with NCI-H226 lung, in the experiment on NCI-H23 lung, in the experiment with HL-60(TB) leukemia, in the experiment with MALME-3M melanoma, with OVCAR-5 ovarian and in the experiment on NCI-H522 lung was greater than 100 µM in each case. Further, the TGI with MDA-N, with PC-3 prostate, in the experiment on MDA-MB-231 breast, in the experiment on KM12 colon, in the experiment on HCC-2998 colon and in the experiment on NCI/ADR-RES ovarian was greater than 100 µM in each case. In the experiment on SF-295 CNS, this molecule came in with a TGI greater than 100 µM.
Regarding `N#Cc1c(=O)n(-c2ccccc2)c(O)c2c(N)n[nH]c12`, the TGI in the experiment with SR leukemia, with SK-OV-3 ovarian, in the experiment with OVCAR-4 ovarian, with SNB-19 CNS, in the experiment with MOLT-4 leukemia and with NCI-H226 lung was greater than 100 µM each time. Besides, the TGI with NCI-H23 lung, with HL-60(TB) leukemia, with MALME-3M melanoma, in the experiment with OVCAR-5 ovarian, in the experiment with NCI-H522 lung and in the experiment with MDA-N was greater than 100 µM throughout. Also, the TGI in the experiment with PC-3 prostate, with MDA-MB-231 breast, in the experiment with KM12 colon, in the experiment with HCC-2998 colon and in the experiment with NCI/ADR-RES ovarian was greater than 100 µM in each case.
Turning to `N#CC1C(=O)N(c2ccccc2)NC12OC(=O)c1ccncc12` (configuration not stated), the TGI in the experiment on SR leukemia, in the experiment on ACHN renal, in the experiment with SK-OV-3 ovarian, in the experiment on OVCAR-4 ovarian, with SNB-19 CNS and in the experiment with MOLT-4 leukemia was greater than 20 µM each time. In addition, the TGI with NCI-H226 lung, with NCI-H23 lung, with HL-60(TB) leukemia, in the experiment on MALME-3M melanoma, with OVCAR-5 ovarian and with CCRF-CEM leukemia was greater than 20 µM throughout. The TGI in the experiment on NCI-H522 lung, in the experiment with MDA-N, with PC-3 prostate, in the experiment with MDA-MB-231 breast, with HCC-2998 colon and in the experiment with NCI/ADR-RES ovarian was greater than 20 µM each time. The same molecule displayed a TGI with SF-295 CNS greater than 20 µM.
